From patent US20260060982A1, “USE OF BTK INHIBITOR AND SINGLE-DOSE DRUG” (HUBEI BIO-PHARMACEUTICAL INDUSTRIAL TECHNOLOGICAL INSTITUTE …, priority 2023, published 2026)

Columns and labels:
[1] = test system: collagen-induced arthritis in DBA/1 mice; assay: Collagen-induced arthritis (CIA) model in mice; assay type: in vivo; conditions: for average body weight: after day 33
Method: Clinical symptoms of arthritis were induced in mice by injecting collagen emulsion into the tail of mice. The specific steps were as follows:
DBA/1 mice were randomly divided into 6 groups, with 10 mice in each group except the blank control group (5 mice). […] The day of the first immunization was recorded as day 0, and the subsequent days were marked in sequence. DBA/1 mice were anesthetized with isoflurane and injected subcutaneously with 50 μl of the prepared collagen emulsion (containing 200 μg of CII) at the tail (2 cm to 3 cm from the base of the tail). On day 21, the same volume of collagen emulsion was injected into the tail in the same way.
On day 28, when the average clinical score reached 1 to 2, the mice were randomly redivided into 4 treatment groups (10 mice per group) and a blank vehicle control group (10 mice per group) according to body weight and score. […] The administration was performed once daily for 14 days by gavage at 10 mL/kg. After the administration, the clinical score curve of each animal in each group was analyzed to calculate the area under the curve (AUC). The inhibition rate of each administration group relative to the blank vehicle control was calculated based on the average AUC between groups.
Clinical observation: From 7 days before immunization to 21 days after immunization, the basic health status and weight changes of DBA/1 mice were observed daily (recorded twice a week). After day 22, the health status, disease incidence, and weight changes of the mice were observed daily (recorded every two days) until the end of the experiment.
When mice began to develop symptoms of arthritis (clinical symptoms of arthritis appeared), they were scored on a scale from 0 to 4 based on the severity of the lesions (redness, swelling, joint deformation), with a maximum score of 4 for each limb and a maximum score of 16 for each animal. The scoring was performed at least three times a week.
Pathology: On day 42, mice were euthanized. The two hind limbs of the mice were taken, soaked in 10% formalin solution, decalcified with formic acid solution, embedded in paraffin, sectioned, stained with hematoxylin-eosin (HE), and observed under a microscope. The degree of joint damage was evaluated from four aspects: inflammatory cell infiltration, pannus formation, cartilage damage, and bone resorption, and scored on a scale from 0 to 4.

[2] = test system: PG-PS-induced arthritis in Lewis rats; assay: PG-PS-induced arthritis model in rats; assay type: in vivo; conditions: for joint tissue lesions (pathology): day 30
Excerpt: Intraperitoneal injection of PG-PS suspension can effectively induce chronic, erosive, and relapsing symptoms similar to human rheumatoid arthritis in rats, and is often used to evaluate the in vivo effectiveness of medicaments in the early discovery of arthritis medicaments. The specific steps were as follows:
On day 0, Lewis rats were randomly divided into 6 groups, with 5 rats in the first group and 10 rats in each group from the second group to the sixth group. All rats in the second to sixth groups were intraperitoneally injected with PG-PS (Lee Laboratories, PG-PS 10S, 5.1 mg/ml Rhamnose) to establish the model. The PG-PS injection dose v=15 μg/g×bw (rat weight, in g)/5.1 μg/μL.
On day 1, the model rats (the second to sixth groups) were randomly redivided into 5 groups, with 10 rats in each group. The animals in each group were given the corresponding medicament or vehicle by gavage once a day until the 29th day. […] Clinical observations and clinical scoring were performed daily during the administration period. The ankle diameter of each animal after modeling was subtracted from its ankle diameter before modeling to obtain the ankle diameter difference (delta ankle diameter). The area under the curve (AUC) was calculated by analyzing the ankle diameter difference of each animal in each group. The inhibition rate of each administration group relative to the blank vehicle control was calculated by the average AUC between groups.
Pathology: On day 30, the rats were euthanized. The two hind limbs of rats were stained with toluidine blue to evaluate the degree of joint damage in terms of inflammatory cell lesions, pannus formation, cartilage damage, bone resorption, and periosteal new bone formation, and the severity was scored on a scale from 0 to 7.

BTK = BTK (Homo sapiens, UniProt Q06187); assay: Inhibition of BTK kinase activity (HTRF); assay type: biochemical
Sequence of BTK (Q06187 whole entry): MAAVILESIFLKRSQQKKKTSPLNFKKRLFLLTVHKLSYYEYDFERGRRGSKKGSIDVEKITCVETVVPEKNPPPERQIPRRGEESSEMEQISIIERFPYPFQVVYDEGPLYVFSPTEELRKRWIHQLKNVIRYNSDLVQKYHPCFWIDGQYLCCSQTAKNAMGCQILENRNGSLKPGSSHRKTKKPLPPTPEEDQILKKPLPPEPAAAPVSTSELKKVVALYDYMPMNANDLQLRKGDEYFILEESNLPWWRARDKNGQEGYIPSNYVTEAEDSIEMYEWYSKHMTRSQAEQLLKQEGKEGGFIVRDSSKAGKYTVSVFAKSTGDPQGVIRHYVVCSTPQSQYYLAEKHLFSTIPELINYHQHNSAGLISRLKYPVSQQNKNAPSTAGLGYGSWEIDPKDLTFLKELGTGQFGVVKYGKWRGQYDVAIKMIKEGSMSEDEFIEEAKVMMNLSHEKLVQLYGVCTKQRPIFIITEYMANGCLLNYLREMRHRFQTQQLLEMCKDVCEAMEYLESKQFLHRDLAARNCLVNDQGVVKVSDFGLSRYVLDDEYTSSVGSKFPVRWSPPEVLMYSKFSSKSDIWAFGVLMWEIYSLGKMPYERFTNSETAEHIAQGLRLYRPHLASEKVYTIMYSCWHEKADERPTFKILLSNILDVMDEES
Method: The specific experimental steps were as follows:
The BTK kinase/peptide mix solution was added to the assay plate at 5 μL per well, and centrifuged at 1000 rpm for 1 min. The assay plate was incubated at 23° C. for 15 min.
C. An ATP solution (3968 μL of 1.33× kinase reaction buffer and […] of 10 mM ATP) was prepared, added to the assay plate at 2.5 μL per well, and centrifuged at 1000 rpm for 1 min. The assay plate was incubated at 23° C. for 90 min.
The assay plate was incubated at 23° C. for 60 min and read on the Envision multilabel reader.
E. IC50 results were analyzed using XLFIT5 (Formula 205) from IDBS.

`C=CC(=O)N1CCC[C@@H](n2nc(-c3ccc(Oc4ccccn4)cc3)c3c(N)n[nH]c(=O)c32)C1` [compound (I), (R)-1-(1-acryloylpiperidin-3-yl)-4-amino-3-(4-(pyridin-2-yloxy)phenyl)-1H-pyrazolo[3,4-d]pyridazin-7(6H)-one] was tested, and the “inflammation inhibition rate (AUC of clinical score vs blank vehicle control)” value ([1]; 1 mg/kg once daily by gavage for 14 days) was 65.5%, the average body weight ([1]; 1 mg/kg) was “remained basically unchanged” and the “inflammation inhibition rate (AUC of clinical score vs blank vehicle control)” value ([1]; 3 mg/kg once daily by gavage for 14 days) was 82.4%. For the same compound, the average body weight ([1]; 3 mg/kg) was “increased”, the “inflammation inhibition rate (AUC of clinical score vs blank vehicle control)” value ([1]; 10 mg/kg once daily by gavage for 14 days) was 83.9% and the average body weight ([1]; 10 mg/kg) was “increased”. The “pathology of foot joint bone tissue” value ([1]; three dose groups (1, 3, and 10 mg/kg), day 42) was “only mild inflammation”, the “inhibition rate (AUC of ankle diameter difference vs blank vehicle control)” value ([2]; 1 mg/kg once a day by gavage until the 29th day) was 47.7% and the “joint tissue lesions (pathology)” value ([2]; 1 mg/kg) was “trend of alleviating tissue damage”. The “inhibition rate (AUC of ankle diameter difference vs blank vehicle control)” value ([2]; 3 mg/kg once a day by gavage until the 29th day) was 64.7%, the “joint tissue lesions (pathology)” value ([2]; 3 mg/kg) was “significant improvement effect” and the “inhibition rate (AUC of ankle diameter difference vs blank vehicle control)” value ([2]; 10 mg/kg once a day by gavage until the 29th day) was 77.3%. The “joint tissue lesions (pathology)” value ([2]; 10 mg/kg) was “significant improvement effect” and the IC50 (BTK) was at most 4 nM.
